The source of these data is ChEMBL document CHEMBL1949605, “Discovery of aminoheterocycles as potent and brain penetrant prolylcarboxypeptidase inhibitors” (Bioorg Med Chem Lett, 2012).

In general, IC50 refers to the concentration that inhibits the measured activity by half. As a reminder, the inhibition is the relative decrease from the control value, in per cent.

For series [1], the target named is T1, Lysosomal Pro-X carboxypeptidase (Mus musculus, UniProt Q7TMR0).
T1 sequence (Q7TMR0 whole entry): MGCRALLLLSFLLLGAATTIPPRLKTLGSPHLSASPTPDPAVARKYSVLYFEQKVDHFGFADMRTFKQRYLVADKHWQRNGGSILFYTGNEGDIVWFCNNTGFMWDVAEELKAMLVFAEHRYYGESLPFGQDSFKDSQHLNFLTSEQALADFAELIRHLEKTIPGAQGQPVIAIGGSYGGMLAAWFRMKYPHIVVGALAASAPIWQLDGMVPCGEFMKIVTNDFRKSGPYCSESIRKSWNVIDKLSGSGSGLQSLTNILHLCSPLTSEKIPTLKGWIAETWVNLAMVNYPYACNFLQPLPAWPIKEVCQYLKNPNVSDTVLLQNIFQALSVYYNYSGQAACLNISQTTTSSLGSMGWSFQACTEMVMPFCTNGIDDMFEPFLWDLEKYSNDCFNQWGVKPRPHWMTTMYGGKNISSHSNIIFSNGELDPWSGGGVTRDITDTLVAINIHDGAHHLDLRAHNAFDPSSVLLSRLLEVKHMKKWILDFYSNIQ
Kind of series: Inhibition of mouse recombinant PrCP assessed as angiotensin 3 cleavage after 8 mins by LC/MS analysis.

Series [2] is described as follows: Plasma concentration in CF-1 mouse at 1 mg/kg, iv measured after 4 hrs post dosing. It is filed as ADME, organism-based. Also noted: dose 1 mg/kg, route intravenous.
The nature of series [3]: Ratio of drug uptake in brain to plasma of CF-1 mouse at 1 mg/kg, iv measured 4 hrs post-dosing. As to conditions: read-out: BPR. The class given is ADME, organism-based. Also noted: dose 1 mg/kg, route intravenous.
Series [4] can be described thus: Drug uptake in CF-1 mouse brain at 1 mg/kg, iv measured after 4 hrs post dosing. It is filed as ADME, organism-based. On the set-up: dose 1 mg/kg, route intravenous. To be noted: read-out: Drug uptake.
In series [5] the target is T2, Lysosomal Pro-X carboxypeptidase (Homo sapiens) (UniProt P42785).
T2 sequence (whole entry): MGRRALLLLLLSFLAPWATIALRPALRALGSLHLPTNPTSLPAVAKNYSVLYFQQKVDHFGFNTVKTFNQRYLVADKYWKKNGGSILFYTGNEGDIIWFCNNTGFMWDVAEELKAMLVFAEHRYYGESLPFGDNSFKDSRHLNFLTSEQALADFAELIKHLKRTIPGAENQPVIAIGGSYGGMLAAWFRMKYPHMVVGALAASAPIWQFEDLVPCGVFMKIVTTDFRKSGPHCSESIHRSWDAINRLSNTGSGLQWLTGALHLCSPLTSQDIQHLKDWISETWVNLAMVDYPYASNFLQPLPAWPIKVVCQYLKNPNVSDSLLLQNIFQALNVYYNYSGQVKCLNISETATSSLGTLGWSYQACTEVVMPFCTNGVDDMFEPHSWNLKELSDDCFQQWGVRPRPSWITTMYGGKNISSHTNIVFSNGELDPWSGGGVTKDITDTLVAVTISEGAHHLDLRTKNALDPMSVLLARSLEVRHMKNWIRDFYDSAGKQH
In words: Inhibition of human recombinant PrCP using Mca-Ala-Pro-Lys(Dnp)-OH as substrate at 5 uM after 30 mins by fluorescence analysis.

Series [6] concerns the target T1, Lysosomal Pro-X carboxypeptidase. Kind of series: Inhibition of mouse recombinant PrCP using Mca-Ala-Pro-Lys(Dnp)-OH as substrate after 30 mins by fluorescence analysis.
The target of series [7] is T3, Lysosomal Pro-X carboxypeptidase (Homo sapiens, UniProt P42785).
T3 sequence (P42785 whole entry): T2 sequence (whole entry)
In words: Inhibition of human recombinant PrCP using Mca-Ala-Pro-Lys(Dnp)-OH as substrate after 30 mins by fluorescence analysis.

For `OC1(c2ccccc2)CCN(c2cc(N3CCC[C@H]3c3nc4cc(Cl)c(Cl)cc4[nH]3)ncn2)C1` (mixture of isomers), the IC50 in series [1] is greater than 20 µM.

Consider `Clc1cc2nc([C@@H]3CCCN3c3cc(N4CCO[C@@H](c5ccccc5)C4)ncn3)[nH]c2cc1Cl`, for which the concentration at 4 h in series [2] is 304 nM; in series [4] it was 242 nM. The Kp at 4 h in series [3] was found to be 0.79. The IC50 in series [1] was greater than 20 µM. On to `FC(F)(F)c1ccccc1-c1ccnc(N2CCC[C@H]2c2nc3cc(Cl)c(Cl)cc3[nH]2)c1`, for which the inhibition in series [5] amounted to 46%. On to `Clc1cc2nc([C@@H]3CCCN3c3cc(N4CCCC(N5CCc6c(cccc6-c6cccnc6)C5)C4)ncn3)[nH]c2cc1Cl` (stereo in doubt; 28b), for which the figures for the IC50 in series [6] and in series [1] were 18 nM and 0.355 µM, respectively.

Take `COc1ccc(C2CN(c3cc(N4CCC[C@H]4c4nc5cc(Cl)c(Cl)cc5[nH]4)ncn3)CCO2)cc1` (stereo not given in full): the IC50 in series [6] is 46 nM; in series [1], 9 µM. For the molecule `Clc1cc2nc([C@@H]3CCCN3c3cc(N4CCC(Cn5cccn5)CC4)ncn3)[nH]c2cc1Cl`, the IC50 in series [6] is 206 nM; in series [1], greater than 20 µM. For `CC(C)(O)C1CCCN(c2cc(N3CCC[C@H]3c3nc4cc(Cl)c(Cl)cc4[nH]3)ncn2)C1` (mixture of isomers), the IC50 in series [1] was greater than 20 µM.

`Clc1cc2nc([C@@H]3CCCN3c3cc(N4CCCC(N5CCc6c(cccc6-c6cccnc6)C5)C4)ncn3)[nH]c2cc1Cl` (stereo in doubt; 28a): the concentration at 4 h turned out to be 367 nM in series [2] and 108 nM in series [4]. Besides, the IC50 in series [6] amounted to 10 nM; in series [1] it was 0.345 µM. Besides, the Kp at 4 h in series [3] was found to be 0.29. As for `C[C@H](Nc1cc(N[C@H]2CC[C@H](NS(C)(=O)=O)CC2)ncn1)c1ccc(Cl)cc1`, the 50% inhibitory concentration (IC50) in series [6] came out at 105 nM. Turning to `Clc1cc2nc([C@@H]3CCCN3c3cc(N4CCN(Cc5ccccc5)CC4)ncn3)[nH]c2cc1Cl`, the IC50 in series [6] is 413 nM; in series [1] it was greater than 20 µM. As to `Clc1cc2nc([C@@H]3CCCN3c3cc(NCC4CCCCC4)ncn3)[nH]c2cc1Cl`, in series [7], the IC50 is greater than 10 µM. On to `COC(=O)N[C@H]1CC[C@H](Nc2cc(N[C@@H](C)c3ccc(Cl)cc3)ncn2)CC1`, for which the IC50 is 26 nM in series [6] and 0.159 µM in series [1]. In the case of `C[C@@H](c1ccc(Cl)cc1)N(C)c1cc(N2CCCC(C(C)(C)O)C2)ncn1` (mixture of isomers), the IC50 in series [6] came out at 797 nM; in series [1] it was 5 µM. Turning to `C[C@H](Nc1cc(N2CCCC(C(C)(C)O)C2)ncn1)c1ccc(Cl)cc1` (stereo not given in full), the concentration at 4 h was found to be 291 nM in series [2] and 400 nM in series [4]. The Kp at 4 h in series [3] came out at 1.4. In the case of `Clc1cc2nc([C@@H]3CCCN3c3cc(N4CCO[C@H](c5ccccc5)C4)ncn3)[nH]c2cc1Cl`, in series [1], the IC50 was greater than 20 µM. In the case of `C[C@@H](c1ccc(Cl)cc1)N(C)c1cc(N2CCCC(C(C)(C)O)C2)ncn1` (stereo in doubt; 36a), the IC50 in series [6] worked out at 146 nM; in series [1], 2.21 µM. As for `Clc1cc2nc([C@@H]3CCCN3c3cc(N4CCC(c5ccccn5)C4)ncn3)[nH]c2cc1Cl` (mixture of isomers), in series [1], the IC50 was greater than 20 µM.

For `C[C@@H](c1ccc(-c2ccccc2)cc1)[C@H](NC(=O)C(C)(C)N)C(=O)N1CCC[C@H]1c1nc2cc(Cl)c(Cl)cc2[nH]1`, in series [1], the IC50 turned out to be 0.025 µM. With `C[C@H](Nc1cc(N[C@H]2CC[C@H](c3ccccc3)CC2)ncn1)c1ccc(Cl)cc1`, the IC50 in series [6] came to 75 nM.
